Results published in PubChem BioAssay (NCI).
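Results reflect a 48-hour exposure of cells in 96-well plates to compound at five concentrations. Definition used: TGI = concentration required for complete inhibition of growth.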

Legend:
Test in all cases: DTP human tumour cell line panel, 48 h
SF-268 CNS = system: SF-268 CNS
MALME-3M melanoma = system: MALME-3M melanoma
MDA-N = system: MDA-N
HOP-62 NSCLC = system: HOP-62 NSCLC
SK-MEL-5 melanoma = system: SK-MEL-5 melanoma
LOX IMVI melanoma = system: LOX IMVI melanoma
TK-10 renal = system: TK-10 renal
NCI-H460 lung = system: NCI-H460 lung
OVCAR-8 ovarian = system: OVCAR-8 ovarian
NCI/ADR-RES ovarian = system: NCI/ADR-RES ovarian

Row | SMILES | TGI (SF-268 CNS) | TGI (MALME-3M melanoma) | TGI (MDA-N) | TGI (HOP-62 NSCLC) | TGI (SK-MEL-5 melanoma) | TGI (LOX IMVI melanoma) | TGI (TK-10 renal) | TGI (NCI-H460 lung) | TGI (OVCAR-8 ovarian) | TGI (NCI/ADR-RES ovarian)
1 | CNc1ncnc(Sc2nc(N)nc3nc[nH]c23)c1[N+](=O)[O-] | > 36.5 µM | 18.9 µM | 14.9 µM | > 100 µM | 13.4 µM | 12.2 µM | 0.941 µM | 3.28 µM | 18.5 µM | 34.4 µM
2 | O=C(c1ccccc1)c1ccc(C(c2c(O)c3ccccc3oc2=O)c2c(O)c3ccccc3oc2=O)cc1 | 64.7 µM | 37.6 µM | > 71.7 µM | > 57.3 µM | > 68.5 µM | > 100 µM | 36.7 µM | > 100 µM | > 75.1 µM | 62.5 µM
3 | O=c1c(O)c(-c2ccc(O)cc2O)oc2cc(O)cc(O)c12 | > 100 µM | > 100 µM | > 100 µM | > 100 µM | > 100 µM | > 100 µM | > 100 µM | > 100 µM | > 100 µM | > 100 µM
4 | Clc1ccc(-c2nn3c(CCCCCCCCc4nnc5sc(-c6ccc(Cl)cc6)nn45)nnc3s2)cc1 | > 100 µM | > 90.4 µM | > 94.7 µM | > 83.2 µM | 60.3 µM | 24.5 µM | > 100 µM | > 100 µM | > 94.8 µM | > 87.2 µM
5 | CC(=O)N=C(N=Nc1c(O)[nH]c2ccc(C)cc12)NC(C)=O | > 100 µM | > 100 µM | > 100 µM | > 100 µM | > 100 µM | > 100 µM | > 100 µM | > 100 µM | > 100 µM | > 100 µM
6 | CCOP(=O)(OCC)C(NC(=O)OCC(Cl)(Cl)Cl)n1nnc(C(=O)OC)c1C(=O)OC (stereo not given) | > 100 µM | > 100 µM | > 100 µM | > 100 µM | > 100 µM | > 100 µM | > 100 µM | > 100 µM | > 100 µM | > 100 µM
7 | Clc1ccc(N=C/C=C/Nc2ccc(Cl)cn2)nc1 | 30.6 µM | 31.2 µM | 28.4 µM | 31 µM | 27.5 µM | 19.8 µM | 34.9 µM | 32.7 µM | 23.3 µM | 32.6 µM
8 | S=c1ssc2c3ssc(=S)c3n(Cc3ccccc3)c12 | > 100 µM | > 100 µM | > 100 µM | > 100 µM | > 100 µM | > 100 µM | > 100 µM | > 100 µM | > 100 µM | > 100 µM
9 | CC1=C(/C=C/C(C)=C/C=C/C(C)=C/C(=O)OCC2OC(n3cc(F)c(=O)[nH]c3=O)CC2OC(=O)/C=C(C)/C=C/C=C(C)/C=C/C2=C(C)CCCC2(C)C)C(C)(C)CCC1 (stereo not given) | > 85.3 µM | > 100 µM | > 48.4 µM | > 27.9 µM | 19.8 µM | 25.8 µM | > 58.4 µM | > 26.7 µM | > 66.7 µM | > 100 µM
10 | CCC1(C)C=Cc2c(cc(OC)c3c(=O)c4ccccc4n(C)c23)O1 (stereo not given) | > 10 µM | > 10 µM | > 10 µM | > 10 µM | > 10 µM | > 10 µM | > 10 µM | > 10 µM | > 10 µM | > 10 µM
11 | CCOC(=O)C1(C(=O)OCC)C[C@]23OCCC(=O)[C@H]2[C@H]2C(=O)OC(C)(C)O[C@]23C1 | > 100 µM | > 100 µM | > 100 µM | > 100 µM | > 100 µM | > 100 µM | > 100 µM | > 100 µM | > 100 µM | > 100 µM
12 | c1ccc(N=C2c3ccccc3CN2c2ccccc2)cc1 | > 100 µM | > 100 µM | > 100 µM | > 100 µM | > 100 µM | > 100 µM | > 100 µM | > 100 µM | > 100 µM | > 100 µM
13 | COc1ccc(OC)c(C2CCc3nc4nc(N)nc(N)c4cc3C2)c1 (stereo not given) | 10.4 µM | 3.57 µM | 5.04 µM | 5.04 µM | 18.6 µM | 8.14 µM | 23.6 µM | 19.2 µM | 6.93 µM | > 100 µM
14 | CCOC(=O)/C(C#N)=C/c1ccc2c(-c3c(OCC)ccc4cc(/C=C(\C#N)C(=O)OCC)ccc34)c(OCC)ccc2c1 | > 100 µM | > 100 µM | > 100 µM | > 100 µM | > 100 µM | > 100 µM | > 100 µM | > 100 µM | > 100 µM | > 100 µM
15 | CN(C)c1nc(N(C)C)nc(N(C)C)n1 | > 150 µM | > 150 µM | > 150 µM | > 142 µM | 136 µM | > 150 µM | > 150 µM | > 150 µM | > 150 µM | > 150 µM
16 | O=C(Cn1c(=O)ccn(C2OC(CO)C(O)C2F)c1=O)c1ccc(F)cc1 (stereo not given) | > 100 µM | > 100 µM | > 100 µM | > 100 µM | > 100 µM | > 100 µM | > 100 µM | > 100 µM | > 100 µM | > 100 µM
17 | COc1ccc2[nH]c(CCNC(=O)c3cc([N+](=O)[O-])cc([N+](=O)[O-])c3)cc2c1 | > 100 µM | > 100 µM | > 100 µM | 60.6 µM | > 100 µM | > 100 µM | > 100 µM | > 100 µM | > 100 µM | > 100 µM
18 | CCN1CC2=C(N=c3s/c(=C\c4ccc(Cl)cc4)c(=O)n3C2c2ccc(Cl)cc2)/C(=C/c2ccc(Cl)cc2)C1 (stereo not given) | 80.6 µM | > 100 µM | > 100 µM | 90.4 µM | > 100 µM | > 100 µM | 62.5 µM | > 100 µM | > 100 µM | > 100 µM
19 | CCOC(=O)C1C(=O)CC(O)(OCC)C(C(=O)OCC)C1c1ccc(OC)cc1 (stereo not given) | > 100 µM | > 100 µM | > 100 µM | > 100 µM | > 100 µM | > 100 µM | > 100 µM | > 100 µM | > 100 µM | > 100 µM
20 | Brc1cccc(/C=C/CN2CCN(CCOC(c3ccccc3)c3ccccc3)CC2)c1 | 39.6 µM | 31.5 µM | 32.9 µM | 30.1 µM | 33.6 µM | 27.6 µM | 33.9 µM | 28.1 µM | 29.7 µM | 30.4 µM
21 | S=c1[nH]nc(COc2ccc3c(c2)CCCC3)n1/N=C/c1ccc(Cl)cc1 | 43 µM | 33.1 µM | 33.5 µM | 32.3 µM | 29.3 µM | 37 µM | 38.6 µM | 30.2 µM | 31.8 µM | 33.7 µM
22 | C[C@]12CC[C@@H]3c4ccc(O)cc4CC[C@H]3[C@@H]1C/C(=C\c1ccc([N+](=O)[O-])cc1)C2=O | > 100 µM | > 100 µM | > 100 µM | > 100 µM | > 100 µM | > 100 µM | > 100 µM | > 100 µM | > 100 µM | > 100 µM
23 | CC(=O)OCC1OC(On2ccccc2=S)C(OC(C)=O)C(OC(C)=O)C1OC(C)=O (stereo not given) | > 100 µM | > 100 µM | > 100 µM | > 100 µM | > 100 µM | > 100 µM | > 100 µM | > 100 µM | > 100 µM | > 100 µM
24 | CCOC(=O)c1cc2cc(N(C(C)=O)C(C)=O)ccc2s1 | 80.6 µM | 46.1 µM | > 100 µM | > 100 µM | 65 µM | > 100 µM | > 100 µM | > 100 µM | 93.2 µM | > 100 µM
25 | CNC(=S)/C(=N\Nc1nc[nH]c1C(N)=O)C(N)=S | > 54.2 µM | > 54.8 µM | > 63 µM | > 100 µM | 81.3 µM | > 37.9 µM | > 57.5 µM | > 100 µM | > 57.5 µM | > 64.5 µM
26 | O=C(O)CC(C(=O)O)c1ccccc1[N+](=O)[O-] (stereo not given) | > 100 µM | > 100 µM | > 100 µM | > 100 µM | > 100 µM | > 100 µM | > 100 µM | > 100 µM | > 100 µM | > 100 µM
27 | Cc1ccc(-c2c(C#N)c(-c3ccc(Cl)cc3)c(C#N)c(=O)n2NS(=O)(=O)c2ccccc2)cc1 | > 100 µM | > 100 µM | > 100 µM | > 100 µM | > 100 µM | > 100 µM | > 100 µM | > 100 µM | > 100 µM | > 100 µM
28 | O=C(OCCN=C1c2ccccc2CCc2ccccc21)c1cc([N+](=O)[O-])cc([N+](=O)[O-])c1 | > 31.6 µM | > 31.6 µM | > 31.6 µM | > 31.6 µM | > 31.6 µM | > 31.6 µM | > 31.6 µM | > 31.6 µM | > 31.6 µM | > 31.6 µM
